Results on 28 compounds are retold here after patent US20090012056A1, “Quinoline Compounds Capable of Binding the Cb2 and/or the 5-Ht6 Receptor” (GLAXO GROUP LIMITED, priority 2005, published 2009).

Assay [1] has as its target T1, human cannabinoid CB2 receptor (Homo sapiens, UniProt P34972).
T1 construct: expressed in transfected cells; host or cells: Saccharomyces cerevisiae strain MMY23
Description: Cannabinoid CB2 receptor agonist activity in yeast cells expressing the human CB2 receptor (FDGlu fluorescence). Format: cell-based. The settings on record: 24 hours at 30° C., read-out: pEC50 at the CB2 receptor (agonist activity) (converted). The source says: Yeast (Saccharomyces cerevisiae) cells expressing the human cannabinoid CB2 receptor were generated by integration of an expression cassette into the ura3 chromosomal locus of yeast strain MMY23. This cassette consisted of DNA sequence encoding the human CB2 receptor flanked by the yeast GPD promoter to the 5′ end of CB2 and a yeast transcriptional terminator sequence to the 3′ end of CB2. MMY23 expresses a yeast/mammalian chimeric G-protein alpha subunit in which the C-terminal 5 amino acids of Gpa1 are replaced with the C-terminal 5 amino acids of human Gαi1/23 (as described in Brown et al. (2000), Yeast 16:11-22). Cells were grown at 30° C. in liquid Synthetic Complete (SC) yeast media (Guthrie and Fink (1991), Methods in Enzymology, Vol. 194) lacking uracil, tryptophan, adenine and leucine to late logarithmic phase (approximately 6 OD600/ml).
Agonists were prepared as 10 mM solutions in DMSO. EC50 values (the concentration required to produce 50% maximal response) were estimated using 4 fold dilutions of between 3- and 5-fold (BiomekFX, Beckman) into DMSO. Agonist solutions in DMSO (1% final assay volume) were transferred into black microtitre plates from NUNC Greiner (384-well). Cells were suspended at a density of 0.2 OD600/ml in SC media lacking histidine, uracil, tryptophan, adenine and leucine and supplemented with 10 mM 3-aminotriazole, 0.1M sodium phosphate pH 7.0, and 120 μM fluorescein di-β-D-glucopyranoside (FDGlu). This mixture (50 ul per well) was added to agonist in the assay plates (Multidrop 384, Labsystems). After incubation at 30° C. for 24 hours, fluorescence resulting from degradation of FDGlu to fluorescein due to exoglucanase, an endogenous yeast enzyme produced during agonist-stimulated cell growth, was determined using a fluorescence microtitre plate reader (Tecan Spectrofluor or LJL Analyst excitation wavelength: 485 nm; emission wavelength: 535 nm). Fluorescence was plotted against compound concentration and iteratively curve fitted using a four parameter fit to generate a concentration effect value.
Efficacy (Emax) was calculated from the equation
Emax=Max[compound X]−Min[compound X]/Max[HU210]−Min[HU210]×100% • where Max[compound X] and Min[compound X] are the fitted maximum and minimum respectively from the concentration effect curve for compound X, and Max[HU210] and Min[HU210] are the fitted maximum and minimum respectively from the concentration effect curve for (6aR,10aR)-3-(1,1′-Dimethylheptyl)-6a,7,10,10a-tetrahydro-1-hydroxy-6,6-dimethyl-6H-dibenzo[b,d]pyran-9-methanol (HU210; available from Tocris). Equieffective molar ratio (EMR) values were calculated from the equation
EMR=EC50[compound X]/EC50[HU210] • Where EC50 [compound X] is the EC50 of compound X and EC50 [HU210] is the EC50 of HU210. • pEC50 is the negative log of the EC50.

Assay [2] addresses T2, human cloned 5-HT6 receptors (Homo sapiens, UniProt P50406).
T2 construct: expressed in transfected cells; host or cells: HeLa cells (membranes)
Description: Cyclase assay (cAMP production in membranes of HeLa 5HT6 cells, antagonism of 5-HT). Format: biochemical. The settings on record: cyclase assay with 5-HT at 4xEC50, read-out: fpKi (functional pKi, antagonist potency) (converted). The procedure: 0.5 μl of test compound in 100% dimethylsulfoxide (DMSO) was added to a white, solid 384 well assay plate (for dose response measurements the top of the concentration range is 7.5 μM final). 10 μl of washed membranes of HeLa 5HT6 cells (for preparation see WO 98/27081) in basic buffer (50 mM HEPES pH 7.4 (KOH), 1 mM MgCl2, 100 mM NaCl, 1 μl/ml 3-isobutyl-1-methylxanthine (IBMX) (Sigma-Aldrich)) was added to all wells followed by 10 μl 2×ATP buffer (100 μl/ml ATP and 1 μl/ml 3-Isobutyl-1-methylxanthine (IBMX) (Sigma-Aldrich)) with 5-HT (at a concentration equivalent to a dose response of 4×EC50). The resultant mixture was then incubated at room temperature for 30-45 minutes to allow cAMP production.
cAMP production was then measured using the DiscoveRx™ HitHunter™ chemiluminescence cAMP assay kit (DiscoveRx Corporation, 42501 Albrae Street, Fremont, Calif. 94538; Product Code: 90-0004L) or any other suitable cAMP measurement assay.
IC50 values were estimated from arbitrary designated unit (ADU) measurements from a Perkin Elmer Viewlux instrument using a four parameter logistic curve fit within EXCEL (Bowen, W. P. and Jerman, J. C. (1995), Nonlinear regression using spreadsheets. Trends in Pharmacol. Sci., 16, 413-417). Functional Ki values were calculated using the method of Cheng, Y. C. and Prussof, W. H. (Biochemical Pharmacol (1973) 22 3099-3108). pIC50 and fpKi are the negative log 10 of the molar IC50 and functional Ki respectively.
(In general: cAMP levels reflect the balance of adenylyl cyclase and phosphodiesterase activity.)

Where a name gives a salt, the structure may show the parent alone.

T2 sequence (P50406 whole entry): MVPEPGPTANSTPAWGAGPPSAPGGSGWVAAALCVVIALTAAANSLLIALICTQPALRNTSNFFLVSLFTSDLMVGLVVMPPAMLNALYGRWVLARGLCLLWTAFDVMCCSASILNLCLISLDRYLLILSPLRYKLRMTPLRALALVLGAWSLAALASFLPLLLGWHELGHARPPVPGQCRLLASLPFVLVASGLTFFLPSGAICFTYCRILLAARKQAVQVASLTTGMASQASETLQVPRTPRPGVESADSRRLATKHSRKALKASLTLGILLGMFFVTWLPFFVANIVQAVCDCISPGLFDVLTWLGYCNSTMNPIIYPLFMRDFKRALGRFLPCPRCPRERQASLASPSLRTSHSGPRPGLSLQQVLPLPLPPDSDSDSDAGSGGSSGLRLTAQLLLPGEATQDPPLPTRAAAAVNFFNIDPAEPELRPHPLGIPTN
T1 sequence (P34972 whole entry): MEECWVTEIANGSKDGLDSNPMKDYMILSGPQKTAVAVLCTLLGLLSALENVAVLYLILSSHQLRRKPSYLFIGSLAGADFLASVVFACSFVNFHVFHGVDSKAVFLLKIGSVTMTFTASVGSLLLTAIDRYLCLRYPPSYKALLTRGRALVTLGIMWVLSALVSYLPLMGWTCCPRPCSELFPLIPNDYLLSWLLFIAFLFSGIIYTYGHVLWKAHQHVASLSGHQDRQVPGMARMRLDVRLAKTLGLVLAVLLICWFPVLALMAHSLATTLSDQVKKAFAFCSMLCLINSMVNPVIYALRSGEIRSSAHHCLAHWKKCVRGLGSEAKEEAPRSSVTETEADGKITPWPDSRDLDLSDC

For the compound `O=S(=O)(c1ccccc1)c1cnc2c(CN3CCCC3)cccc2c1` [Example 1, 3-(Phenylsulfonyl)-8-(1-pyrrolidinylmethyl)quinoline hydrochloride], in assay [1], the EC50 was at most 10000 nM. In assay [2], the Ki is below 100 nM.

Consider `CN1CCN(Cc2cccc3cc(S(=O)(=O)c4ccccc4)cnc23)CC1` [Example 3, 8-[(4-Methyl-1-piperazinyl)methyl]-3-(phenylsulfonyl)quinoline], for which the EC50 in assay [1] was above 31600 nM. For the same compound, in assay [2], the Ki was below 100 nM.

With `O=S(=O)(c1ccccc1)c1cnc2c(CN3CCC(F)(F)CC3)cccc2c1` [Example 5, 8-[(4,4-Difluoro-1-piperidinyl)methyl]-3-(phenylsulfonyl)quinoline], the EC50 in assay [1] is below 1000 nM. In addition, the Ki in assay [2] is below 100 nM.

On to `CC1CCC(C)N1Cc1cccc2cc(S(=O)(=O)c3ccccc3)cnc12` (centres unmarked) [Example 6, 8-[(2,5-Dimethyl-1-pyrrolidinyl)methyl)-3-(phenylsulfonyl)quinoline], for which the EC50 in assay [1] was at most 10000 nM. In addition, the Ki in assay [2] was below 100 nM.

As for `CN(C)Cc1cccc2cc(S(=O)(=O)c3ccccc3)cnc12` [Example 7, N,N-Dimethyl-1-[3-(phenylsulfonyl)quinolin-8-yl]methanamine], in assay [1], the EC50 was at most 10000 nM. Besides, the Ki in assay [2] is below 100 nM.

As to `CC1CCCN1Cc1cccc2cc(S(=O)(=O)c3ccccc3)cnc12` (centres unmarked) [Example 8, 8-[(2-Methylpyrrolidin-1-yl)methyl]-3-(phenylsulfonyl)quinoline], the EC50 in assay [1] is at most 10000 nM. Further, the Ki in assay [2] was below 100 nM.

`O=S(=O)(c1ccccc1)c1cnc2c(CCN3CCCC3)cccc2c1` [Example 10, 3-(Phenylsulfonyl)-8-[2-(1-pyrrolidinyl)ethylquinoline hydrochloride]: the Ki in assay [2] is below 100 nM.

Turning to `O=S(=O)(c1ccccc1)c1cnc2c(CCN3CCCCC3)cccc2c1` [Example 11, 3-(Phenylsulfonyl)-8-[2-(1-piperidiny)ethyl]quinoline hydrochloride], in assay [2], the Ki was below 100 nM.

`O=S(=O)(c1ccccc1)c1cnc2c(CCCN3CCCC3)cccc2c1` [Example 12, 3-(Phenylsulfonyl)-8-[3-(1-pyrrolidinyl)propyl]quinoline hydrochloride]: the Ki in assay [2] is below 100 nM.

For the compound `O=S(=O)(c1ccccc1)c1cnc2c(CCCN3CCCCC3)cccc2c1` [Example 13, 3-(Phenylsulfonyl)-8-[3-(1-piperidinyl)propyl]quinoline], in assay [2], the Ki is below 100 nM.

Take `O=S(=O)(c1ccccc1)c1cnc2c(CCCN3CCOCC3)cccc2c1` [Example 14]: in assay [2], the Ki is below 100 nM.

In the case of `CN(C)CCCc1cccc2cc(S(=O)(=O)c3ccccc3)cnc12` [Example 15, N,N-Dimethyl-3-[3-(phenylsulfonyl)-8-quinolinyl]-1-propanamine], in assay [2], the Ki is below 100 nM.

In the case of `CC(c1cccc2cc(S(=O)(=O)c3ccccc3)cnc12)N1CCCC1` (centres unmarked) [Example 16, 3-(Phenylsulfonyl)-8-(1-pyrrolidin-1-ylethyl)quinoline hydrochloride], in assay [2], the Ki is below 100 nM.

As to `CC(c1cccc2cc(S(=O)(=O)c3ccccc3)cnc12)N1CCCCC1` (centres unmarked) [Example 17, 3-(phenylsulfonyl)-8-(1-piperidin-1-ylethyl)quinoline], in assay [2], the Ki is below 100 nM.

`CC(c1cccc2cc(S(=O)(=O)c3ccccc3)cnc12)N1CCOCC1` (centres unmarked) [Example 18, 8-(1-morpholin-4-ylethyl)-3-(phenylsulfonyl)-quinoline]: the Ki in assay [2] was at most 1000 nM.

Consider `CC(c1cccc2cc(S(=O)(=O)c3ccccc3)cnc12)N(C)C` (centres unmarked) [Example 19, N,N-dimethyl-1-[3-(phenylsulfonyl)quinolin-8-yl]ethanamine], for which the Ki in assay [2] was below 100 nM.

Turning to `CC(C)N(C)C(C)c1cccc2cc(S(=O)(=O)c3ccccc3)cnc12` (centres unmarked) [Example 20, N-Methyl-N-{1-[3-(phenylsulfonyl)quinolin-8-yl]ethyl}propan-2-amine hydrochloride], the EC50 in assay [1] is below 1000 nM. For the same compound, the Ki in assay [2] is below 100 nM.

For `CCN(C)C(C)c1cccc2cc(S(=O)(=O)c3ccccc3)cnc12` (centres unmarked) [Example 21, N-Ethyl-N-methyl-1-[3-(phenylsulfonyl)quinolin-8-yl]ethanamine hydrochloride], the Ki in assay [2] was below 100 nM.

On to `CC(C)(c1cccc2cc(S(=O)(=O)c3ccccc3)cnc12)N1CCCC1` [Example 22, 8-(1-Methyl-1-pyrrolidin-1-ylethyl)-3-(phenylsulfonyl)quinoline hydrochloride], for which, in assay [2], the Ki was at most 1000 nM.

As for `O=S(=O)(c1ccc(F)cc1)c1cnc2c(CN3CCCC3)cccc2c1` [Example 23, 3-[(4-Fluorophenyl)sulfonyl]-8-(1-pyrrolidinylmethyl)quinoline hydrochloride], the EC50 in assay [1] is at most 10000 nM. The Ki in assay [2] was below 100 nM.

Consider `CC(=O)N1CCN(Cc2cccc3cc(S(=O)(=O)c4ccccc4)cnc23)CC1` [Example 24, 8-[(4-acetyl-1-piperazinyl)methyl]-3-(phenylsulfonyl)quinoline hydrochloride], for which the EC50 in assay [1] is at most 10000 nM. The Ki in assay [2] is at most 1000 nM.

For `CC(C)NCc1cccc2cc(S(=O)(=O)c3ccccc3)cnc12` [Example 25, N-{[3-(phenylsulfonyl)-8-quinolinyl]methyl}-2-propanamine hydrochloride], in assay [1], the EC50 is below 1000 nM. Moreover, the Ki in assay [2] is below 100 nM.

Consider `CNCc1cccc2cc(S(=O)(=O)c3ccccc3)cnc12` [Example 26, N-methyl-1-[3-(phenylsulfonyl)-8-quinolinyl]methanamine hydrochloride], for which, in assay [1], the EC50 is at most 10000 nM. In assay [2], the Ki was below 100 nM.

In the case of `O=S(=O)(c1ccccc1)c1cnc2c(CN3CCCC(F)(F)C3)cccc2c1` [Example 27, 8-[(3,3-Difluoropiperidin-1-yl)methyl]-3-(phenylsulfonyl)quinoline hydrochloride], in assay [1], the EC50 is below 1000 nM. Moreover, the Ki in assay [2] is above 1000 nM.

For the compound `COC1CCN(Cc2cccc3cc(S(=O)(=O)c4ccccc4)cnc23)CC1` [Example 28, 8-[(4-Methoxypiperidin-1-yl)methyl]-3-(phenylsulfonyl)quinoline hydrochloride], in assay [1], the EC50 was below 1000 nM. For the same compound, in assay [2], the Ki is below 100 nM.

As for `CC1CCCCN1Cc1cccc2cc(S(=O)(=O)c3ccccc3)cnc12` (centres unmarked) [Example 29, 8-[(2-Methyl-1-piperidinyl)methyl]-3-(phenylsulfonyl)quinoline hydrochloride], the EC50 in assay [1] is at most 10000 nM. Also, the Ki in assay [2] is at most 1000 nM.

Take `CC1CCCN(Cc2cccc3cc(S(=O)(=O)c4ccccc4)cnc23)C1` (centres unmarked) [Example 30, 8-[(3-Methyl-1-piperidinyl)methyl]-3-(phenylsulfonyl)quinoline hydrochloride]: in assay [1], the EC50 was below 1000 nM. Also, the Ki in assay [2] was below 100 nM.

In the case of `O=S(=O)(c1ccccc1)c1cnc2c(CN3CCC4(CC3)OCCO4)cccc2c1` [Example 31, 8-(1,4-Dioxa-8-azaspiro[4.5]dec-8-ylmethyl)-3-(phenylsulfonyl)quinoline hydrochloride], the EC50 in assay [1] is at most 10000 nM. In addition, the Ki in assay [2] is below 100 nM.
